What all share (type): cell-based
For assay [1], the system named is Human lung cancer cells A549. Nature of the assay: MTS cell growth inhibition, A549. The following applies: compound concentration 10 μM, 48 h, MTS, read-out: Inhibition rate against A549 at 10 μM (%). As to the method:
(§1) 1) Medium: DMEM (Dulbecco's modified eagle medium) or RPMI1640 (containing 10% fetal bovine serum, 100 μg/mL ampicillin, 100 μg/mL streptomycin).
(§2) 2) Reagent: MTS reaction solution (containing 2 mg/mL of MTS (3-(4,5-dimethylthiazol-2-yl)-5-(3-carboxymethoxyphenyl)-2-(4-sulfophenyl)-2H-tetrazolium, inner salt); 100 μg/mL PES ([…])).
(§3) Human promyelocytic leukemia cells HL-60 (2×10^4 cells/well) cultured in vitro were incubated into a 96-well culture plate, the volume of cell-culture medium was 90 μL, and then 10 μL of the compound at each gradient concentration was added (the highest concentration was 10 μM, which was diluted stepwise by ⅓, and 8 concentration points were set in total; the system contained 0.1% DMSO (dimethyl sulfoxide)). The cell plate with uniformly mixed compound was cultured in a cell culture incubator (37° C.; 5% CO2) for 48 h, then 20 μμL of MTS reaction solution was added, uniformly mixed and incubated in the cell culture incubator (37° C.; 5% CO2) for 1-4 hr; OD values at 490 nm were measured by a microplate reader (VARIOSKAN FLASH, Thermo). Three parallels were set in each group of experiments, with 0.1% (a final concentration) DMSO as a negative control, and a medium without cells and compounds as a blank control. The cell growth inhibition rate was calculated by the following formula:
(§4) Cell growth inhibition rate%=1−(ODexperimental group−ODblank group)/(ODnegative group−ODblank group)×100%
(§5) 4) IC50 calculation: The semi-inhibitory concentration of the compound acting on cell was calculated using GradPad Prism 5 software according to the measured cell growth inhibition rate.
(§6) Human lung cancer cells A549, human gastric cancer cells BGC-823, human liver cancer cells HepG-2 and human breast cancer cells MCF-7, human osteosarcoma cells U2OS, human prostate cancer cells LNCAP cultured in vitro were added in a 96-well culture plate at 1,000-10,000 cells/well, incubated until adherence, and then the compound was added. As to other procedures, please refer to the method (1) above.

For assay [2], the system named is human gastric cancer cells BGC-823. Nature of the assay: MTS cell growth inhibition, BGC-823. The following applies: 48 h; for inhibition at 10 µM: compound concentration 10 μM, read-out: Inhibition rate against BGC-823 at 10 μM (%); for IC50: growth inhibition. As for the experimental part:
as §1, §2, §3, §4, §5, §6

Assay [3] has as its system human liver cancer cells HepG-2. Put plainly: MTS cell growth inhibition, HepG-2. The following applies: 48 h; for inhibition at 10 µM: HepG2, compound concentration 10 μM, read-out: Inhibition rate against HepG-2 at 10 μM (%); for IC50: HepG2, growth inhibition. As to the method: as §1, §2, §3, §4, §5, §6
In assay [4] the test system is human breast cancer cells MCF-7. Nature of the assay: MTS cell growth inhibition, MCF-7. The following applies: MCF7, compound concentration 10 μM, 48 h, read-out: Inhibition rate against MCF-7 at 10 μM (%). As to the method: as §1, §2, §3, §4, §5, §6
Assay [5] has as its system Human promyelocytic leukemia cells HL-60. Nature of the assay: MTS cell growth inhibition, HL-60. The note with it: Homo sapiens, HL-60, 48 h, MTS; for inhibition at 10 µM: compound concentration 10 μM, read-out: Inhibition rate against HL-60 at 10 μM (%); for IC50: growth inhibition. As to the method:
as §1, §2, §3, §4, §5

Assay [6] deals with human osteosarcoma cells U2OS. Put plainly: MTS cell growth inhibition, U2OS. The following applies: Homo sapiens, U2OS, 48 h, MTS; for inhibition at 10 µM: compound concentration 10 μM, read-out: Inhibition rate against U2OS at 10 μM (%); for IC50: growth inhibition. As to the method:
as §1, §2, §3, §4, §5, §6

Assay [7] has as its system human prostate cancer cells LNCAP. Nature of the assay: MTS cell growth inhibition, LNCAP. The following applies: Homo sapiens, LNCaP, 48 h, MTS; for inhibition at 10 µM: compound concentration 10 μM, read-out: Inhibition rate against LNCAP at 10 μM (%); for IC50: growth inhibition. As for the experimental part: as §1, §2, §3, §4, §5, §6

With `O=C(Nc1ccc(OC(F)(F)F)cc1)c1cc2scnc2[nH]1` [Compound I-6], the inhibition (in general, the change of the read-out against control, counted positive when it falls) at 10 µM in assay [1] is 6.3%; in assay [2], 64.5%; in assay [3], 66.5%; in assay [4], 3.4%; in assay [5], 69.1%; in assay [6], 56.2%. The inhibition at 10 µM in assay [7] turned out to be 55.8%. Also, the IC50 (as a rule, the concentration needed to halve the response being measured) came to 582 nM in assay [2]; 1980 nM in assay [3]; 217 nM in assay [5]; 929 nM in assay [6]; 319 nM in assay [7].

Regarding `COC(=O)c1ccc(NC(=O)c2cc3scnc3[nH]2)cc1` [Compound I-8], the inhibition at 10 µM in assay [1] is 56.8%; in assay [2] it was 72.2%; in assay [3] it was 58.1%; in assay [4] it was 21.2%; in assay [5] it was 69.4%; in assay [6], 50.9%. The IC50 in assay [5] is 1780 nM; in assay [6], 6350 nM; in assay [7] it was 6040 nM.

Turning to `O=C(Nc1ccc(C(F)(F)F)cc1)c1cc2scnc2[nH]1` [Compound I-11], the inhibition at 10 µM was found to be 7.6% in assay [1]; 58.8% in assay [2]; 62.9% in assay [3]; 7.4% in assay [4]; 71.2% in assay [5]; 56.2% in assay [6]. The inhibition at 10 µM in assay [7] is 56.1%. Besides, the IC50 in assay [2] was 849 nM; in assay [3], 1470 nM; in assay [5], 653 nM; in assay [6] it was 1510 nM; in assay [7], 5260 nM.

As to `COc1ccc(NC(=O)c2cc3scnc3[nH]2)cc1` [Compound I-12], the inhibition at 10 µM is 9.3% in assay [1]; 47.4% in assay [2]; 58.3% in assay [3]; 5.9% in assay [4]; 68.9% in assay [5]; 57.7% in assay [6]. Further, the inhibition at 10 µM in assay [7] was found to be 54.6%. Also, the IC50 in assay [2] amounted to 952 nM; in assay [3], 223 nM; in assay [5] it was 590 nM; in assay [6], 1520 nM; in assay [7], 6310 nM.

Consider `CN(C)c1ccc(NC(=O)c2cc3scnc3[nH]2)cc1` [Compound I-13], for which the inhibition at 10 µM is 3.4% in assay [1]; 54.3% in assay [2]; 54.7% in assay [3]; less than 0% in assay [4]; 69.7% in assay [5]; 53.2% in assay [6]. Further, the inhibition at 10 µM in assay [7] was 48.6%. Further, the IC50 in assay [2] is 1110 nM; in assay [3] it was 1930 nM; in assay [5], 1300 nM; in assay [6] it was 2680 nM; in assay [7] it was greater than 10000 nM.

On to `CCN(CC)c1ccc(NC(=O)c2cc3scnc3[nH]2)cc1` [Compound I-15], for which the inhibition at 10 µM in assay [1] is 69.4%; in assay [2] it was 71.7%; in assay [3], 57.8%; in assay [4], 23.8%; in assay [5], 63.2%; in assay [6], 53.5%. For the same compound, the IC50 in assay [5] was 2710 nM; in assay [6], greater than 10000 nM; in assay [7], greater than 10000 nM.

As to `O=C(Nc1ccc([N+](=O)[O-])cc1)c1cc2scnc2[nH]1` [Compound I-16], the inhibition at 10 µM in assay [1] was 32.4%; in assay [2], 63.3%; in assay [3], 38.6%; in assay [4], 17.6%; in assay [5], 44.6%; in assay [6], 40.2%. For the same compound, the inhibition at 10 µM in assay [7] was 58%.

The record behind these values is patent US20200325156A1, “HETEROARYL AMIDE COMPOUNDS, PREPARATION METHOD THEREFOR, PHARMACEUTICAL COMPOSITIONS THEREOF, AND APPLICATIONS THEREOF” (Rui Jin Hospital Affiliated to Shanghai Jiao Tong …, priority 2017, published 2020).
